tested on: Staphylococcus aureus (H-Heatley) NRRL B-314; test: in vitro turbidometric assay (Autoturb Microbiological Assay System) against Staphylococcus aureus; format: cell-based; details: nutrient broth pH 7, approximately 4 hours at 37° C., A-40104 factor A as standard
Description: The compounds are conveniently tested against a typical gram-positive organism, Staphylococcus aureus, using a turbidometric assay on a semi-automated system (Autoturb Microbiological Assay System, Elanco) described by N. R. Kuzel and F. W. Kavanagh in J. Pharmaceut. Sci, 60 (5), 764 and 767 (1971). In testing these compounds, the following parameters were used: Staphylococcus aureus (H-Heatley) NRRL B-314 in a nutrient broth medium (pH 7), incubated for approximately 4 hours at 37° C. Test samples and A-40104 factor A, which is used as a standard, were dissolved in water. The standard was presented to the Autoturb carrousel at concentrations of 1.25, 2.50, 3.75, 5.00 and 6.25 mcg/ml. Test compounds were diluted to contain approximately 2.5 to 5.0 mcg of activity per ml, as presented to the carrousel. The units of activity of some of the typical compounds of this invention (R^2 =H in group tested) in this in vitro assay are summarized in Table I

| Compound | Units of Activity |
| --- | --- |
| CC[C@]1(C)C[C@@H](OC(=O)CS[C@H]2OC[C@@H](O)[C@@H](O)[C@H]2O)[C@]2(C)[C@H](C)CC[C@]3(CCC(=O)[C@H]32)[C@@H](C)[C@@H]1O [Example 39, 14-Deoxy-14-[(α-D-ribopyranosyl)thioacetoxy]-19,20-dihydromutilin] | 430 to 433 µg/mg |
| CC[C@]1(C)C[C@@H](OC(=O)CS[C@@H]2O[C@H](COC(C)=O)[C@@H](O[C@H]3O[C@H](COC(C)=O)[C@@H](OC(C)=O)[C@H](OC(C)=O)[C@H]3OC(C)=O)[C@H](OC(C)=O)[C@H]2OC(C)=O)[C@]2(C)[C@H](C)CC[C@]3(CCC(=O)[C@H]32)[C@@H](C)[C@@H]1O [Example 53] | 28 µg/mg |
| CC[C@]1(C)C[C@@H](OC(=O)CS[C@@H]2OC[C@@H](O)[C@@H](O)[C@@H]2O)[C@]2(C)[C@H](C)CC[C@]3(CCC(=O)[C@H]32)[C@@H](C)[C@@H]1O [Example 23, 14-deoxy-14-[(β-D-arabinopyranosyl)thioacetoxy]-19,20-dihydromutilin] | 420 µg/mg |
| CC[C@]1(C)C[C@@H](OC(=O)CS[C@@H]2OC[C@@H](OC(C)=O)[C@@H](OC(C)=O)[C@H]2OC(C)=O)[C@]2(C)[C@H](C)CC[C@]3(CCC(=O)[C@H]32)[C@@H](C)[C@@H]1O | 480 to 500 µg/mg |
| CC[C@]1(C)C[C@@H](OC(=O)CS[C@@H]2OC[C@@H](OC(C)=O)[C@@H](OC(C)=O)[C@@H]2OC(C)=O)[C@]2(C)[C@H](C)CC[C@]3(CCC(=O)[C@H]32)[C@@H](C)[C@@H]1O [Example 21, 14-Deoxy-14-[(2,3,4-tri-O-acetyl-β-D-arabinopyranosyl)thioacetoxy]-19,20-dihydromutilin] | 380 µg/mg |
| CC[C@]1(C)C[C@@H](OC(=O)CO[C@H]2O[C@H](CO)[C@@H](O)[C@H](O)[C@H]2O)[C@]2(C)[C@H](C)CC[C@]3(CCC(=O)[C@H]32)[C@@H](C)[C@@H]1O [Example 2, 14-deoxy-14-[(α-D-glucopyranosyl)oxyacetoxy]-19,20-dihydromutilin] | < 100 µg/mg |
| C=C[C@]1(C)C[C@@H](OC(=O)CS[C@@H]2O[C@H](COC(C)=O)[C@@H](O[C@H]3O[C@H](COC(C)=O)[C@@H](OC(C)=O)[C@H](OC(C)=O)[C@H]3OC(C)=O)[C@H](OC(C)=O)[C@H]2OC(C)=O)[C@]2(C)[C@H](C)CC[C@]3(CCC(=O)[C@H]32)[C@@H](C)[C@@H]1O [Example 52, 14-Deoxy-14-[(4-O-(2,3,4,6-tetra-O-acetyl-α-D-glucopyranosyl)-2,3,6-tri-O-acetyl-β-D-glucopyranosyl)thioacetoxy]mutilin] | 40 µg/mg |
| C=C[C@]1(C)C[C@@H](OC(=O)CS[C@@H]2OC[C@@H](OC(C)=O)[C@@H](OC(C)=O)[C@@H]2OC(C)=O)[C@]2(C)[C@H](C)CC[C@]3(CCC(=O)[C@H]32)[C@@H](C)[C@@H]1O [Example 20, 14-Deoxy-14-[(2,3,4-tri-O-acetyl-β-D-arabinopyranosyl)thioacetoxy]mutilin] | 430 µg/mg |
| C=C[C@]1(C)C[C@@H](OC(=O)CS[C@H]2OC[C@@H](OC(C)=O)[C@@H](OC(C)=O)[C@H]2OC(C)=O)[C@]2(C)[C@H](C)CC[C@]3(CCC(=O)[C@H]32)[C@@H](C)[C@@H]1O [Example 36 α-anomer, 14-deoxy-14-[(2,3,4-tri-O-acetyl-α-D-ribopyranosyl)thioacetoxy]mutilin] | 50 µg/mg |
| C=C[C@]1(C)C[C@@H](OC(=O)CS[C@H]2OC[C@@H](O)[C@@H](O)[C@H]2O)[C@]2(C)[C@H](C)CC[C@]3(CCC(=O)[C@H]32)[C@@H](C)[C@@H]1O [Example 37, 14-Deoxy-14-[(α-D-ribopyranosyl)thioacetoxy]-mutilin] | 350 µg/mg |
| C=C[C@]1(C)C[C@@H](OC(=O)CS[C@@H]2OC[C@@H](O)[C@@H](O)[C@H]2O)[C@]2(C)[C@H](C)CC[C@]3(CCC(=O)[C@H]32)[C@@H](C)[C@@H]1O [Example 38, 14-Deoxy-14-[(β-D-ribopyranosyl)thioacetoxy]-mutilin] | 1070 µg/mg |
| C=C[C@]1(C)C[C@@H](OC(=O)CO[C@@H]2OC[C@@H](O)[C@H](O)[C@H]2O)[C@]2(C)[C@H](C)CC[C@]3(CCC(=O)[C@H]32)[C@@H](C)[C@@H]1O [A-40104 factor A, reference compound] | 446 to 452 µg/mg |
| C=C[C@]1(C)C[C@@H](OC(=O)CS[C@H]2O[C@H](COC(C)=O)[C@@H](OC(C)=O)[C@H]2OC(C)=O)[C@]2(C)[C@H](C)CC[C@]3(CCC(=O)[C@H]32)[C@@H](C)[C@@H]1O [Example 41 α-anomer, 14-deoxy-14-[(2,3,5-tri-O-acetyl-α-D-ribofuranosyl)thioacetoxy]mutilin] | about 200 mcg/mg |
| C=C[C@]1(C)C[C@@H](OC(=O)CS[C@@H]2O[C@H](COC(C)=O)[C@@H](OC(C)=O)[C@H]2OC(C)=O)[C@]2(C)[C@H](C)CC[C@]3(CCC(=O)[C@H]32)[C@@H](C)[C@@H]1O [Example 41 β-anomer, 14-deoxy-14-[(2,3,5-tri-O-acetyl-β-D-ribofuranosyl)thioacetoxy]mutilin] | about 450 mcg/mg |
| CC[C@]1(C)C[C@@H](OC(=O)CS[C@@H]2OC[C@@H](O)[C@@H](O)[C@H]2O)[C@]2(C)[C@H](C)CC[C@]3(CCC(=O)[C@H]32)[C@@H](C)[C@@H]1O [Example 40, 14-Deoxy-14-[(β-D-ribopyranosyl)thioacetoxy]-19,20-dihydromutilin] | 1500 µg/mg |
| C=C[C@]1(C)C[C@@H](OC(=O)CS[C@@H]2OC[C@@H](O)[C@@H](O)[C@@H]2O)[C@]2(C)[C@H](C)CC[C@]3(CCC(=O)[C@H]32)[C@@H](C)[C@@H]1O [Example 22, 14-Deoxy-14-[(β-D-arabinopyranosyl)thioacetoxyl]mutilin] | 380 µg/mg |
